Test results taken from patent EP4803080A1, “METHOD FOR TREATING LEUKEMIA” (Shenzhen TargetRx Co., Ltd., priority 2023, dated 2025).
Values joined by “and” are separate entries in the source; they are usually repeats but may differ in a detail not shown here. Identical values can stand only once. Like-named read-outs stand apart in the source and are kept apart here.

Key:
Ba/F3 BCR-ABL1 I502L = test: Cell growth inhibitory activity test (CellTiter-Glo); assay type: cell-based; settings: Mus musculus, BaF3, 72 hours
Text: (§1) The inhibitory effects of the compounds of the examples on the activity of Ba/F3 parental cells, Ba/F3 Bcr-Abl wild-type and mutant cells were detected.
(§2) This test used the Celltiter-Glo (CTG) kit (a homogeneous method for cell viability detection) provided by Promega to determine the cell viability of cultured cells by quantifying ATP. Ba/F3 parental cells were purchased from RIKEN BRC, catalog number RCB0805; other cells containing BCR-ABL1 wild-type and mutants were monoclonal engineered cell lines obtained by transfecting Ba/F3 parental cells with lentiviral plasmids containing WT or corresponding mutations of BCR-ABL1.
(§3) The steps for cell viability detection are as follows: • a) Collect cells in the logarithmic growth phase, prepare a cell suspension and count the cells to calculate the cell concentration. • b) After diluting the cell suspension to the desired concentration, add it to the inner wells of the 96-well plate, and add PBS to the edge wells. Wells containing only culture medium without cells serve as blank controls. • c) In addition to the cell plate used for compound analysis, prepare another 96-well plate as the T0 plate, adding 3-6 blank wells and 3-6 cell wells. Perform CTG assay the next day to measure cell viability, which serves as the T0 viability value for the cells. • d) Place the cell plate in a 37°C, 5% CO2 incubator and culture overnight. • e) The next day, add gradient-diluted compounds at various concentrations, and place the cell plate in a 37°C, 5% CO2 incubator for 72 hours.
(§4) The following nonlinear fitting formula was used to obtain the IC50 (half maximal inhibitory concentration) of the compounds: Y = Bottom + (Top−Bottom)/(1+10(LogIC50−X)∗HillSlope) [formula] • Y: Inhibition rate (%inhibition) • X: Logarithmic value of compound concentration • Top: Maximum response • Bottom: Baseline response • HillSlope: Slope of the curve

Ba/F3 BCR-ABL1 E255V = test: as above; assay type: cell-based; settings: Mus musculus, BaF3, 72 hours
Text: as §1, §2, §3, §4

Ba/F3 BCR-ABL1 P223S = test: as above; assay type: cell-based; settings: Mus musculus, BaF3, 72 hours
Text: as §1, §2, §3, §4

Ba/F3 BCR-ABL1 M351T = test: as above; assay type: cell-based; settings: Mus musculus, BaF3, 72 hours
Text: as §1, §2, §3, §4

Ba/F3 BCR-ABL1 Q252H = test: as above; assay type: cell-based; settings: Mus musculus, BaF3, 72 hours
Text: as §1, §2, §3, §4

Ba/F3 parental cells = test: as above; assay type: cell-based; settings: Mus musculus, BaF3, 72 hours
Text: as §1, §2, §3, §4

Ba/F3 BCR-ABL1 E255K = test: as above; assay type: cell-based; settings: Mus musculus, BaF3, 72 hours
Text: as §1, §2, §3, §4

Ba/F3 BCR-ABL1 M244V = test: as above; assay type: cell-based; settings: Mus musculus, BaF3, 72 hours
Text: as §1, §2, §3, §4

Ba/F3 BCR-ABL1 E459K = test: as above; assay type: cell-based; settings: Mus musculus, BaF3, 72 hours
Text: as §1, §2, §3, §4

Ba/F3 BCR-ABL1 F317L = test: as above; assay type: cell-based; settings: Mus musculus, BaF3, 72 hours
Text: as §1, §2, §3, §4

Ba/F3 BCR-ABL1 E355G = test: as above; assay type: cell-based; settings: Mus musculus, BaF3, 72 hours
Text: as §1, §2, §3, §4

Ba/F3 BCR-ABL1 WT = test: as above; assay type: cell-based; settings: Mus musculus, BaF3, 72 hours
Text: as §1, §2, §3, §4

Ba/F3 BCR-ABL1 V299L = test: as above; assay type: cell-based; settings: Mus musculus, BaF3, 72 hours
Text: as §1, §2, §3, §4

Ba/F3 BCR-ABL1 G250E = test: as above; assay type: cell-based; settings: Mus musculus, BaF3, 72 hours
Text: as §1, §2, §3, §4

Ba/F3 BCR-ABL1 F359V = test: as above; assay type: cell-based; settings: Mus musculus, BaF3, 72 hours
Text: as §1, §2, §3, §4

Ba/F3 BCR-ABL1 H396P = test: as above; assay type: cell-based; settings: Mus musculus, BaF3, 72 hours
Text: as §1, §2, §3, §4

Ba/F3 BCR-ABL1 Y253H = test: as above; assay type: cell-based; settings: Mus musculus, BaF3, 72 hours
Text: as §1, §2, §3, §4

[1] = Study of blood-brain ratio after single oral dose; assay type: in vivo; settings: male SD rats
Protocol: A total of 15 male SD rats (3 per time point) were administered a single oral dose of Compound A via oral gavage at 50 mg/kg, with the vehicle being 0.5% sodium carboxymethyl cellulose (CMC-Na). The animals were not fasted. Whole blood, cerebrospinal fluid, and brain tissue were collected at 0.5, 2, 4, 8, and 24 hours post-dose. Whole blood samples (about 0.3 mL) were collected via puncture of the jugular venous sinus and transferred to dipotassium ethylenediaminetetraacetate (K2EDTA) anticoagulant tubes, mixed thoroughly, placed on wet ice, and centrifuged within 30 minutes for 5 minutes (6000 rpm, 4°C) to obtain plasma. Cerebrospinal fluid (about 0.10 mL) was collected via puncture of the cerebellomedullary cistern and placed in collection tubes. Brain tissue samples were rinsed with saline, dried with filter paper, blood vessels were removed, and the weight was weighed and recorded. Brain tissue was homogenized with 9 times its weight of homogenization buffer (30% MeOH, containing 0.2% FA/70% 10 mM PBS). All samples were stored in a freezer at -80°C or lower until LC-MS analysis. PK parameters were calculated using the non-compartmental model in WinNonlin and the compound concentrations in each matrix.

[2] = tested on: Ba/F3 BCR-ABL1 E255V/T315I; test: Cell growth inhibition activity test, single agents and combinations (CellTiter-Glo, Chou-Talalay); assay type: cell-based; settings: Mus musculus, BaF3; single agent; E255V/T315I; 72 hours; read-out: IC50
Protocol: A series of cell lines expressing BCR-ABL1 single mutations and compound mutations were constructed based on the Ba/F3 mouse pro-B cell line.
This assay utilized the CellTiter-Glo (CTG) kit provided by Promega, which is a homogeneous method for cell viability detection, measuring the viability of cultured cells by quantifying ATP. Cells were seeded in 96-well plates and treated with different concentrations of test substances. […] At the end of the treatment, CTG reagent (CellTiter-Glo kit) was added according to the manufacturer's instructions to detect cell viability values. Plates were read on a microplate reader (Biotek cytation 3.0). IC50 values were calculated using GraphPad Prism 7.0 software.

[3] = PO 50 mg/kg single dose, 0.5 hr, individual rat, 50 mg/kg
[4] = PO 50 mg/kg single dose, 2 hr, individual rat, 50 mg/kg
[5] = PO 50 mg/kg single dose, 4 hr, individual rat, 50 mg/kg
[6] = PO 50 mg/kg single dose, 8 hr, individual rat, 50 mg/kg
[7] = PO 50 mg/kg single dose, 24 hr, individual rat, 50 mg/kg

Work on `O=C(Nc1ccc(OC(F)(F)Cl)cc1)c1cnc(N2CC[C@@H](F)C2)c(-c2cnccn2)c1` [Compound A, (R)-N-(4-(chlorodifluoromethoxy)phenyl)-6-(3-fluoropyrrolidin-1-yl)-5-(pyrazin-2-yl)nicotinamide] yielded an IC50 (Ba/F3 BCR-ABL1 I502L) of 0.0948 ± 0.00106 µM, an IC50 (Ba/F3 BCR-ABL1 E255V) of 0.00273 ± 2e-05 µM and an IC50 (Ba/F3 BCR-ABL1 P223S) of 0.0437 ± 0.00488 µM. For the same compound, the IC50 (Ba/F3 BCR-ABL1 M351T) was 0.00352 ± 0.0005 µM, the IC50 (Ba/F3 BCR-ABL1 Q252H) was 0.00238 ± 0.00043 µM and the IC50 (Ba/F3 parental cells) was 10 µM. It also gave an IC50 (Ba/F3 BCR-ABL1 E255K) of 0.00101 ± 8e-05 µM, an IC50 (Ba/F3 BCR-ABL1 M244V) of 0.0268 ± 0.00226 µM and an IC50 (Ba/F3 BCR-ABL1 E459K) of 0.0038 ± 0.00022 µM. The IC50 (Ba/F3 BCR-ABL1 F317L) was 0.0172 ± 0.00099 µM, the IC50 (Ba/F3 BCR-ABL1 E355G) was 0.0526 ± 0.00042 µM and the IC50 (Ba/F3 BCR-ABL1 WT) was 0.00411 ± 5e-05 µM. It also gave an IC50 (Ba/F3 BCR-ABL1 V299L) of 0.0723 ± 0.00587 µM, an IC50 (Ba/F3 BCR-ABL1 G250E) of 0.00249 ± 0.00018 µM and an IC50 (Ba/F3 BCR-ABL1 F359V) of 0.0894 ± 0.00891 µM. The IC50 (Ba/F3 BCR-ABL1 H396P) was 0.0117 ± 0.00028 µM, the IC50 (Ba/F3 BCR-ABL1 Y253H) was 0.0056 ± 0.00053 µM and the “Brain Concentration (ng/g) Concentration” value [1, 3] was 302 ng/g and 381 ng/g. The “Brain/Blood Ratio Individual Value” [1, 3] was 0.376 and 0.578, the “Brain Concentration (ng/g) Concentration” value [1, 4] was 1360 ng/g and 1070 ng/g and the “Brain/Blood Ratio Individual Value” [1, 4] was 0.410 and 0.502. The “Brain Concentration (ng/g) Concentration” value [1, 5] was 1190 ng/g and 1310 ng/g, the “Brain/Blood Ratio Individual Value” [1, 5] was 0.478 and 0.466 and the “Brain Concentration (ng/g) Concentration” value [1, 6] was 452 ng/g and 1700 ng/g and 994 ng/g. The “Brain/Blood Ratio Individual Value” [1, 6] was 0.447 and 0.462, the “Brain Concentration (ng/g) Concentration” value [1, 7] was 40.4 ng/g and 10.2 ng/g and the “Brain/Blood Ratio Individual Value” [1, 7] was 0.488 and 0.990. The concentration at 0.5 h ([1]; male, SD, rat, brain, po, 50 mg/kg, PO 50 mg/kg single dose, 0.5 hr, individual rat, read-out: Brain Concentration (ng/g) Concentration) was 415 ng/g, the concentration at 0.5 h ([1]; male, SD, rat, brain, po, 50 mg/kg, PO 50 mg/kg single dose, 0.5 hr, mean of 3 rats, read-out: Brain Concentration (ng/g) Mean) was 366 ng/g and the concentration at 2 h ([1]; male, SD, rat, brain, po, 50 mg/kg, PO 50 mg/kg single dose, 2 hr, individual rat) was 961 ng/g. It also gave a concentration at 4 h ([1]; male, SD, rat, brain, po, 50 mg/kg, PO 50 mg/kg single dose, 4 hr, individual rat) of 880 ng/g, a concentration at 24 h ([1]; male, SD, rat, brain, po, 50 mg/kg, PO 50 mg/kg single dose, 24 hr, mean (one rat NA)) of 16.9 ng/g and a Kp at 0.5 h ([1]; male, SD, rat, brain/plasma, po, 50 mg/kg, PO 50 mg/kg single dose, 0.5 hr, individual rat) of 0.624. For the same compound, the Kp at 2 h ([1]; male, SD, rat, brain/plasma, po, 50 mg/kg, PO 50 mg/kg single dose, 2 hr, individual rat) was 0.439, the Kp at 4 h ([1]; male, SD, rat, brain/plasma, po, 50 mg/kg, PO 50 mg/kg single dose, 4 hr, individual rat) was 0.374 and the Kp at 8 h ([1]; male, SD, rat, brain/plasma, po, 50 mg/kg, PO 50 mg/kg single dose, 8 hr, individual rat) was 0.511. The Kp ([1]; male, SD, rat, brain/plasma, po, 50 mg/kg, single oral dose 50 mg/kg, 0.5 to 24 hours, read-out: brain-to-plasma concentration ratio) was 0.44 to 0.74, the Cmax ([1]; rat, brain, single oral dose 50 mg/kg) was 1130 ng/g and the “AUC0-last in the brain” value ([1]; single oral dose 50 mg/kg) was 16346 ng·h/g. It also gave an IC50 [2] of 0.151 µM.
